Entries after “also recorded” stand apart in the source; their conditions may differ. Blank lines part the entries; values can stand above or below the molecule they belong to.
What was measured:
SKOV3 cells = experiment: Taxol-induced apoptosis (caspase activity); format: cell-based, human
Description: The ability of LPA to protect ovarian tumor cells against apoptosis when exposed to clinically-relevant levels of the chemotherapeutic agent, paclitaxel (Taxol) was investigated. SKVO3 cells were treated with 1% FBS (S), Taxol ([…]), +/− anti-LPA mAbs for 24 h. […] Apoptosis was assayed by measurement of the caspase activity as recommended by the manufacturer (Promega). As anticipated, LPA protected most of the cancer cell lines tested from taxol-induced cell death. […] Moreover, the anti-LPA antibody was able to remove the protection provided by serum. Serum is estimated to contain about […] LPA. […] Taxol-induced caspase activation was enhanced by the addition of all 3 of the anti-LPA mAbs to the culture medium.

[1] = Direct ELISA, chimeric antibody and mutants binding to S1P; settings: for Binding: antibody 0.1 ug/ml, optical density at 450 nm
Description: Microtiter ELISA plates (Costar) were coated overnight with S1P diluted in 1 M Carbonate Buffer (pH 9.5) at 37° C. for 1 hr. Plates were washed with PBS (137 mM NaCl, 2.68 mM KCl, 10.1 mM Na2HPO4, 1.76 mM KH2PO4; pH 7.4) and blocked with PBS/BSA/Tween-20 for 1 hr at room temp or overnight at 4° C. For the primary incubation (1 hr at room temp.), a standard curve using the anti-S1P mAb and the samples to be tested for binding was built using the following set of dilutions: 0.4 μg/mL, 0.2 μg/mL, 0.1 μg/mL, 0.05 μg/mL, 0.0125 μg/mL, and 0 μg/mL, and 100 μl added to each well. Plates were washed and incubated with 100 μl per well of HRP conjugated goat anti-mouse (1:20,000 dilution) (Jackson Immuno Research) or HRP conjugated goat anti-human (H+L) diluted 1:50,000 (Jackson Immuno Research) for 1 hr at room temperature. After washing, the enzymatic reaction was detected with tetramethylbenzidine (Sigma) and stopped by adding 1 M H2SO4. The optical density (OD) was measured at 450 nm using a Thermo Multiskan EX. Raw data were transferred to GraphPad software for analysis.
The chromogenic reaction was measured and reported as Optical density (OD). The concentration of the panel of antibodies was 0.1 ug/ml. No interaction of the second antibody with S1P-coated matrix alone was detected.

human cancer cell lines = experiment: LPA-induced cancer cell proliferation; format: cell-based; settings: LPA 0.01 mM to 10 mM; SKOV3, OVCAR3, Panc-1, Caki-1, DU-145, A549, HCT-116; also rat RBL-2H3
Description: LPA is a potent growth factor supporting cell survival and proliferation by stimulation of Gi, Gq and G12/13 via GPCR-receptors and activation of downstream signaling events. Cell lines were tested for their proliferative response to LPA ([…]). Cell proliferation was assayed by using the cell proliferation assay kit from Chemicon (Temecula Calif.) (Panc-1) and the Cell-Blue titer from Pierce (Caki-1). Each data point is the mean of three independent experiments. […] Even though tumor-derived cells normally have high basal levels of proliferation, LPA appears to further augment proliferation in most tumor cell lines. Anti-LPA mAbs (B7 and B58) were assessed for the ability to inhibit LPA-induced proliferation in selected human cancer cell lines.

Caki-1 cells = experiment: LPA-induced IL-8 release, ELISA of supernatants; format: cell-based, human; settings: 18:1 LPA 0.2 mM, cells without mAb, 24 h
Description: Three anti-LPA mAbs (B3, B7 and B58) were tested for their abilities to reduce in vitro IL-8 production compared to a non-specific antibody (NS). Caki-1 cells were seeded in 96 well plates and grown to confluency. After overnight serum starvation, cells were treated with 18:1 LPA (0.2 mM) with or without anti-LPA mAb B3, B7, B58 or NS (Non-Specific). After 24 h, cultured supernatants of renal cancer cells (Caki-1), treated with or without LPA and in presence of increasing concentrations of the anti-LPA mAbs B3, B7 and B58, were collected and analyzed for IL-8 levels using a commercially available ELISA kit (Human Quantikine Kit, R&D Systems, Minneapolis, Minn.). […] Similar results were obtained with the other well-known pro-angiogenic factor, VEGF. The inhibition of IL-8 release by the anti-LPA mAbs was also observed in other cancerous cell lines such as the pancreatic cell line Panc-1.

[2] = ELISA with exchanged crosslinker or protein carrier in the laydown material; format: binding
Text: For example, the normal crosslinker SMCC was exchanged for IOA in conjugating the thiolated-S1P to BSA as the laydown material in the ELISA. […] Similarly, KLH was exchanged for BSA as the protein that was complexed with thiolated-S1P as the laydown material.

[3] = Competitive ELISA, specificity of anti-S1P mAb; format: binding
Description: (§1) Screening of serum and cell supernatant for S1P-specific antibodies was by direct ELISA using the thiolated S1P analog described in Example 1 (i.e., compound 10) as the antigen. A standard ELISA was performed, as described below, except that 50 ul of sample (serum or cell supernatant) was diluted with an equal volume of PBS/0.1% Tween-20 (PBST) during the primary incubation. ELISAs were performed in 96-well high binding ELISA plates (Costar) coated with 0.1 μg of chemically-synthesized compound 10 conjugated to BSA in binding buffer (33.6 mM Na2CO3, 100 mM NaHCO3; pH 9.5). The thiolated-S1P-BSA was incubated at 37° C. for 1 hr. at 4° C. overnight in the ELISA plate wells. The plates were then washed four times with PBS (137 mM NaCl, 2.68 mM KCl, 10.14 mM Na2HPO4, 1.76 mM KH2PO4; pH 7.4) and blocked with PBST for 1 hr. at room temperature. For the primary incubation step, 75 uL of the sample (containing the S1P to be measured), was incubated with 25 uL of 0.1 ug/mL anti-S1P mAb diluted in PBST and added to a well of the ELISA plate. Each sample was performed in triplicate wells. Following a 1 hr. incubation at room temperature, the ELISA plates were washed four times with PBS and incubated with 100 ul per well of 0.1 ug/mL HRP goat anti-mouse secondary (Jackson Immunoresearch) for 1 hr. at room temperature. Plates were then washed four times with PBS and exposed to tetramethylbenzidine (Sigma) for 1-10 minutes. The detection reaction was stopped by the addition of an equal volume of 1M H2SO4. Optical density of the samples was determined by measurement at 450 nm using an EL-X-800 ELISA plate reader (Bio-Tech).
For cross reactivity, a competitive ELISA was performed as described above, except for the following alterations (FIG. 4). The primary incubation consisted of the competitor (S1P, SPH, LPA, etc.) and a biotin-conjugated anti-S1P mAb. Biotinylation of the purified monoclonal antibody was performed using the EZ-Link Sulfo-NHS-Biotinylation kit (Pierce). Biotin incorporation was determined as per kit protocol and ranged from 7 to 11 biotin molecules per antibody. […]

[4] = Competitive ELISA, specificity of anti-S1P mAb (free lipid competes with plate-bound S1P); format: binding; settings: competitor free S1P
Description: as §1, with “Each sample was performed in triplicate wells. Following a 1 hr. incubation at room temperature, the ELISA plates were washed four times with PBS and incubated with 100 ul per well of 0.1 ug/mL HRP goat anti-mouse secondary (Jackson Immunoresearch) for 1 hr. at room temperature. Plates were then washed four times with PBS and exposed to tetramethylbenzidine (Sigma) for 1-10 minutes. The detection reaction was stopped by the addition of an equal volume of 1M H2SO4.” left out
For cross reactivity, a competitive ELISA was performed as described above, except for the following alterations (FIG. 4). […] Biotin incorporation was determined as per kit protocol and ranged from 7 to 11 biotin molecules per antibody. […]

Molecule: CC(=O)O[C@H]1C(=O)[C@@]2(C)[C@H]([C@H](OC(=O)c3ccccc3)[C@]3(O)C[C@H](OC(=O)[C@H](O)[C@@H](NC(=O)c4ccccc4)c4ccccc4)C(C)=C1C3(C)C)[C@]1(OC(C)=O)CO[C@@H]1C[C@@H]2O [Taxol, paclitaxel]
caspase-3,7 activation (SKOV3 cells; SKOV3 cells): induced caspase-3,7 activation

binding to S1P compared with the chimeric antibody ([1]; ELISA, substitution of Cys 50 in heavy chain CDR2): did not alter the binding
Binding [1]: 2 OD
Molecule: CysPhe

Binding [1]: 1.6 OD
Molecule: MetLeu

Molecule: lysophosphatidic acid [LPA]
proliferative response to LPA (human cancer cell lines): increased proliferation
increase of IL-8 expression (Caki-1 cells): 100%
protection from Taxol-induced apoptosis (SKOV3 cells; Taxol 0.5 mM, 24 h): protected SKVO3 cells from Taxol-induced apoptosis

binding characteristics, laydown with KLH instead of BSA ([2]; KLH complexed with thiolated-S1P): no significant difference
binding characteristics, laydown with IOA instead of SMCC ([2]; thiolated-S1P conjugated to BSA, compared with BSA-SMCC-thiolated-S1P): nearly identical
competition for mAb binding to S1P on the plate ([3]; competitor DH-S1P): can compete for binding
competition for mAb binding to S1P on the plate [4]: can compete for binding
B1: anti-S1P mAb: murine IgG1 kappa monoclonal antibody against S1P from hybridoma clone 306D326.26 (ATCC SD-5362) (antibody, listed as Mus musculus, V domains shown)
VH: QAHLQQSDAELVKPGASVKISCKVSGFIFIDHTIHWMKQRPEQGLEWIGCISPRHDITKYNEMFRGKATLTADKSSTTAYIQVNSLTFEDSAVYFCARGGFYGSTIWFDFWGQGTTLTVS
VL: ETTVTQSPASLSMAIGEKVTIRCITTTDIDDDMNWFQQKPGEPPNLLISEGNILRPGVPSRFSSSGYGTDFLFTIENMLSEDVADYYCLQSDNLPFTFGSGTKLEIK
discrimination of thiolated-S1P analog from natural S1P ([3]; competition experiment): unable to distinguish
competition for mAb binding to S1P on the plate ([3]; competitor SPC (phosphate linked with choline)): somewhat reduced; also recorded: only slightly competes for binding

— patent publication US8796429B2, “Bioactive lipid derivatives, and methods of making and using same” (Lpath, Inc., priority 2006, dated 2014)
